The test system of series [1] is DAMP-induced TNF secretion (CIRP, SAA, PEDF, HSP 70, HSP90, H2A), human primary macrophages. In words: DAMPs-induced TNF secretion in human macrophages. The following applies: 16 hours. The series is classed as cell-based.
Series [2] relates to CCI-induced neuropathic pain. In words: Chronic constriction injury (CCI) of the sciatic nerve neuropathic pain model in rats. The series is classed as in vivo, male Wistar rats. The method, then:
Twenty-four male Wistar rats were separated into four groups (n=6/group) for treatment as follows [please give details concerning each of the four groups regarding procedure and treatment:
The CCI rats each received surgery. […] Mechanical and thermal sensitivity tests were also performed over time. Hargreaves Thermal Hypersensitivity test was administered to the rats as well as Von Frey mechanical hypersensitivity test.
Rats (male Wistar, 150-180 gm, n=6/group) had CCI surgery. […] Two weeks after surgery, thermal (Hargreaves) or mechanical (von Frey) hypersensitivity was assessed. *: P<0.05 vs. PBS group.
In this experiment, male Wistar rats (n=6/group) had CCI surgery. […] Mechanical allodynia was assessed 5 hours later. N=6-8 rats/group. *: p<0.05) vs. HMGB1 alone. Mechanical and thermal sensitivity tests were also performed over time.

Series [3] has as its system liver ischemia and reperfusion injury. In words: Warm liver ischemia and reperfusion (I/R) in mice. The series is classed as in vivo, male C57BL/6 mice.
The next series deals with rats. Kind of series: Single-dose tolerability in rats. Format: in vivo. The following applies: single-dose studies with rats.
For series [4] the following is noted: up to 6 hours, versus P5779.
Series [5] can be described thus: Pharmacokinetics after intravenous administration to rats (LC-MS).
The test system of the next series is STZ-induced diabetes. In words: STZ-induced diabetes in mice. The following applies: repetitive K883 500 μg/mouse, vs PBS. The series is classed as in vivo. The method, then: Mice were administered repetitive administration of […] (500 μg/mouse). […] Repetitive administration of […] was therefore shown to be beneficial in STZ-induced diabetes. […] (*: P<0.05 vs. PBS group. N=6-8 mice per group).

The test system of series [6] is APAP-induced liver injury. In words: APAP-induced liver injury model in mice. The series is classed as in vivo, male C57BL/6 mice.
Series [7] relates to PAMP-induced TNF release (LPS, PGN, AGE, Poly I:C), human macrophages. The following applies: Yang 2015; cited from earlier work.
The test system of series [8] is HMGB1-induced TNF release, human primary macrophages. The following applies: Yang 2015; cited from earlier work.
The subject of series [9] is liver ischemia and reperfusion injury. The following applies: cited from earlier work.
For series [10], the system named is APAP-induced liver injury. The following applies: cited from earlier work.
For series [11] the following is noted: rat, in vivo.

Consider two compounds from patent publication US11524048B2, “HMGB1 antagonist treatment of severe sepsis” (THE FEINSTEIN INSTITUTES FOR MEDICAL RESEARCH, priority 2019, dated 2022).

Values joined by “and” are separate entries in the source; they are usually repeats but may differ in a detail not shown here. Equal entries are not always repeated. “Also recorded” adds a separate entry of the source. Where two headings read alike, the source gives them in different places.

As for `NC(=O)N(CCC(=O)O)NC(=O)[C@H](CO)NC(=O)[C@H](CO)NC(=O)N(N)Cc1ccccc1` [K883], the “TNF secretion induced by other DAMPs” value in series [1] is “is not inhibited”. Besides, the “CCI-induced CXCL1 and TNF expression (DRGs)” value in [2] (DRGs) was “reduces CCI-induced CXCL1 and TNF expression”. Besides, in [2] (Hargreaves / von Frey, K883 800 μg/rat IP once a day for 3 days), the “CCI-induced thermal and/or mechanical hypersensitivity (neuropathy)” value was “improved CCI-induced thermal and mechanical hypersensitivity; also recorded: effectively reduces peripheral neuropathy; also recorded: ameliorated both mechanical and thermal hypersensitivity; also recorded: ameliorated the thermal hypersensitivity”. Also, the “CCI-induced CXCL1, TNF and IL-1β expression (spine)” value in [2] (spine) is “reduces CCI-induced CXCL1, TNF and IL-1β expression”. Moreover, the “liver H&E staining: inflammation (neutrophil infiltration)” value in series [3] (K883, 6 hours after reperfusion, vs vehicle control) is “reduced inflammation”. Moreover, the “protection against hepatic ischemia/reperfusion injury” value in [3] (mice) is given as “protected mice against hepatic ischemia/reperfusion injury”. For the same compound, the tolerability entry in the series with rats is recorded as “well-tolerated”. The “structural stability in mouse serum” value in series [4] is “retains structural stability for a longer period of time”. Moreover, the AUCss in series [5] (IV 1 mg/kg, individual rats, 1 mg/kg) is 3776 ng·h/mL and 3808 ng·h/mL and 3751 ng·h/mL. The “AUCss, Mean” value in series [5] (IV 1 mg/kg, mean of 3 rats) came out at 3778 ng·h/mL. Moreover, in series [5] (rat, in vivo), the “half-life in serum (FIG. 23)” value is “longer half-life in serum”. Besides, in the series on STZ-induced diabetes, the hyperglycemia entry is on record as “delays hyperglycemia”, the insulitis entry was “reduces insulitis” and the weight gain entry is recorded as “improves weight gain”. The “serum ALT” value in series [6] (50 ug/mouse, vs vehicle controls) was “reduced serum ALT”. Further, the “liver necrosis / liver injury (H&E histology)” value in series [6] (APAP 350 mg/kg IP, K883 50 μg/mouse IP at 2 and 7 hours post-APAP, 24 hours) is reported as “reduces APAP-induced liver injury; also recorded: reduced liver necrosis”. Besides, the “mice surviving the toxicity of APAP” value in series [6] (APAP 400 mg/kg, 50 μg/mouse IP once-a-day for 5 days from 2 hours post-APAP, 2 weeks, control group 8) is 14 mice out of 15. Besides, the “percent survival post-APAP” value in series [6] (APAP 400 mg/kg, K883 50 μg/mouse IP once-a-day 5 days, 2 weeks) is listed as “improved survival outcome; also recorded: significant improvement”.
Turning to `NC(=O)[C@H](CCC(=O)O)NC(=O)[C@H](CO)NC(=O)[C@H](CO)NC(=O)[C@@H](N)Cc1ccccc1` [P5779], the “TNF release in macrophages stimulated by LPS, PGN, Poly I:C, CpG DNA or S100 A12” value in series [7] is listed as “not suppress TNF release”. Besides, the “HMGB1-induced TNF release from macrophages” value in series [8] is “inhibit HMGB1-induced TNF release from macrophages in a concentration-dependent manner”. Moreover, the “serum levels of ALT and AST / tissue damage” value in series [9] (P5779 500 μg/mouse IP at time of I/R surgery, 6 hours) is reported as “reduced”. For the same compound, in series [9] (P5779, 6 hours after reperfusion, vs vehicle), the “liver H&E staining: inflammation (neutrophil infiltration)” value is on record as “reduced inflammation”. The “liver necrosis / liver injury (H&E histology)” value in series [10] (APAP 350 mg/kg, P5779 50 or 500 μg/mouse IP at 2 and 7 hours, vs scrambled control peptide) was “reduced APAP-mediated liver injury; also recorded: reduced liver necrosis”. Also, the “percent survival post-APAP” value in [10] (APAP 400 mg/kg, P5779 500 μg/mouse IP once a day 5 days, 2 weeks, vs scrambled control peptide) is reported as “increased survival; also recorded: significantly improved”. Also, the “serum ALT” value in series [10] (P5779 500 ugs/mouse, comparative data) is reported as “significant reductions in ALT”. The “half-life in serum (FIG. 23)” value in series [11] is given as “undetectable”.
